Assay results reported in patent US20220401360A1, “Milrinone Composition and Method for Administering Same” (Vanderbilt University, priority 2015, published 2022).
Values joined by “and” are separate entries in the source; they are usually repeats but may differ in a detail not shown here. Equal values may be shown once. Read-outs that look alike come from different tables or passages of the source.

Experiments:
[1] = Plasma milrinone levels (HPLC) during inhaled milrinone after CF-LVAD implantation; format: in vivo, human; conditions: for concentration at 0 h / concentration at 1 h / concentration at 4 h / concentration at 8 h / concentration at 12 h / concentration at 24 h: human, plasma, inhaled, 6 mg/h
Description: Blood samples to determine plasma milrinone levels were obtained at baseline, 1, 4, 8, 12 and 24 hours after initiation of inhaled milrinone. Plasma milrinone levels were determined by ultra-violet high liquid chromatography (HPLC) method [14].
Delivery of inhaled milrinone was initiated five minutes before the first weaning attempt from cardiopulmonary bypass after LVAD implantation in the operating suite. […] Prior to initiation of inhaled milrinone, blood samples were obtained and analyzed for baseline plasma levels of milrinone. Patient arrival in the ICU immediately after LVAD implantation was defined as ‘time zero.’ Further blood samples to determine plasma milrinone levels were obtained at 1, 4, 8, 12 and 24 hours after arrival to the ICU. […] Patients received inhaled milrinone for a maximum of 24 hours or until the patient was extubated (if less than 24 hours).

[2] = Characterization of inhaled milrinone: nebulization degradation profile (mass spectrometry); format: physicochemical; conditions: vibrating mesh nebulizer connected to a mechanical ventilator circuit
Description: Inhaled milrinone validation studies were performed in order to characterize inhaled milrinone aerosol particle size, evaluate nebulization degradation profile, and quantify drug delivery using a vibrating mesh nebulizer connected to a mechanical ventilator circuit. […] A pharmaceutical grade impactor was used to determine median aerodynamic particle size and HPLC was used to determine the amount of milrinone collected at the distal end of the experimental endotracheal tube [15]. Based on this analysis, we prepared a solution of milrinone diluted in 0.9% saline to a final concentration of 0.5 mg/ml to be delivered via continuous infusion by an Alaris® infusion pump set at a fixed rate of 12 ml/hr connected to an Areogen Solo (Aeroneb,® Galway, Ireland) vibrating mesh nebulizer and Aeroneb Pro-X nebulizer control unit (Aerogen, Galway, Ireland). The nebulizer was connected to a mechanical ventilator (Servo-I, Maquet Inc. Wayne N.J.) with a dual heated wire ventilator circuit (Teleflex Hudson RCI, Research Triangle Park, N.C.) proximal to the heated humidifier (Teleflex Hudson Neptune, Research Triangle Park, N.C.). Despite continuous nebulization, delivery of the aerosolized drug product occurred in an ‘intermittent-continuous’ fashion based on the mechanical ventilator respiratory rate. All inhaled milrinone product was administered by a licensed respiratory therapist.

[3] = system: post-operative CF-LVAD patients; experiment: Perioperative hemodynamics (right heart catheterization / indwelling pulmonary artery catheter) with inhaled milrinone; format: in vivo, human
Description: (§1) Methods. The present inventors evaluated fixed dose nebulized iMil delivered into a ventilator circuit for 24 hours in 10 post-operative CF-LVAD (HeartMate-II=10) patients. Tolerability (arrhythmias, hypotension and hypersensitivity reaction), efficacy (hemodynamic), pharmacokinetics (plasma milrinone levels) and cost data were collected.
(§2) Secondary end points were designed to assess the efficacy, cost effectiveness and pharmacokinetic profile of inhaled milrinone therapy. Efficacy endpoints included hospital and intensive care unit (ICU) length of stay, days on inotropes, mortality at 30 days and changes in right ventricular stroke work index (RSVWi) and right heart catheterization and echocardiographic parameters from baseline values. Right heart catheterization was performed during the hospitalization before LVAD implantation and included the following parameters: right atrial pressure (RAP), mean pulmonary artery pressure (mPAP), pulmonary artery systolic pressure (PASP), cardiac index (CI) and cardiac output (CO). Echocardiographic data was collected retrospectively from echocardiograms closest to LVAD implantation date (studies performed >1 month before surgery were not included) and prospectively obtained within 72 hours after LVAD implantation. Echocardiographic parameters included: left ventricular end diastolic volume (LVEDV), left ventricular end diastolic dimension (LVEDd), cardiac output (CO), PASP, qualitative RV function, and tricuspid annular plane systolic excursion (TAPSE).
Delivery of inhaled milrinone was initiated five minutes before the first weaning attempt from cardiopulmonary bypass after LVAD implantation in the operating suite. Intraoperative transesophageal echocardiography was performed and analyzed by a single cardiac anesthesiologist, certified in the interpretation of intraoperative echocardiography. Prior to initiation of inhaled milrinone, blood samples were obtained and analyzed for baseline plasma levels of milrinone. Patient arrival in the ICU immediately after LVAD implantation was defined as ‘time zero.’ Further blood samples to determine plasma milrinone levels were obtained at 1, 4, 8, 12 and 24 hours after arrival to the ICU. Hemodynamic values from indwelling pulmonary artery catheter and routine vital signs were also obtained at 1, 4, 8, 12 and 24 hour intervals. Patients received inhaled milrinone for a maximum of 24 hours or until the patient was extubated (if less than 24 hours). Final hemodynamic values were obtained 1 hour after extubation or cessation of inhaled milrinone therapy. All patients underwent a transthoracic echocardiogram 48-72 hours after cessation of inhaled milrinone.

[4] = literature refs [17, 18]; cited from earlier work
[5] = system: post-operative CF-LVAD patients; experiment: Tolerability / safety primary end point of inhaled milrinone (arrhythmias, hypotension, hypersensitivity, death); format: in vivo; conditions: for Death while receiving inhaled milrinone therapy: 10 patients
Description: as §1
The primary end point was safety, which included documentation of 1) new atrial arrhythmias, lasting greater than 30 seconds or resulting in hemodynamic instability (mean arterial pressure (MAP)<60 mmHg or requiring medical intervention) 2) sustained ventricular tachycardia (VT) lasting greater than 30 seconds, not related to an LVAD suction event or any ventricular arrhythmia resulting in hemodynamic instability (sustained hypotension with a MAP <60 mmHg not related to secondary causes such as acute blood loss or tamponade) and 3) hypersensitivity reaction to milrinone leading to systemic hypotension (MAP<60 mmHg or requiring medical intervention), bronchospasm or rash 4) Death by 30 days.

[6] = system: post-operative CF-LVAD patients; experiment: Echocardiographic parameters before vs after LVAD implantation with inhaled milrinone; format: in vivo, human
Description: Secondary end points were designed to assess the efficacy, cost effectiveness and pharmacokinetic profile of inhaled milrinone therapy. […] Right heart catheterization was performed during the hospitalization before LVAD implantation and included the following parameters: right atrial pressure (RAP), mean pulmonary artery pressure (mPAP), pulmonary artery systolic pressure (PASP), cardiac index (CI) and cardiac output (CO). […] Echocardiographic parameters included: left ventricular end diastolic volume (LVEDV), left ventricular end diastolic dimension (LVEDd), cardiac output (CO), PASP, qualitative RV function, and tricuspid annular plane systolic excursion (TAPSE). Delivery of inhaled milrinone was initiated five minutes before the first weaning attempt from cardiopulmonary bypass after LVAD implantation in the operating suite. Intraoperative transesophageal echocardiography was performed and analyzed by a single cardiac anesthesiologist, certified in the interpretation of intraoperative echocardiography. Prior to initiation of inhaled milrinone, blood samples were obtained and analyzed for baseline plasma levels of milrinone. […] All patients underwent a transthoracic echocardiogram 48-72 hours after cessation of inhaled milrinone.

[7] = system: post-operative CF-LVAD patients; experiment: Hospital and ICU length of stay, days on inotropes; format: in vivo, human; conditions: inhaled milrinone group
Description: as §2

[8] = while on inhaled milrinone therapy, p<0.009

## Cc1[nH]c(=O)c(C#N)cc1-c1ccncc1 [inhaled milrinone, milrinone]
[1]; baseline, fixed dose nebulized iMil, 10 post-operative CF-LVAD patients
  Mean plasma milrinone levels at baseline: 74.2 ± 35.4 ng/mL
[1]; Table 3 mean of patients, 0 hrs, read-out: Plasma milrinone level, Mean, 0 hrs
  concentration at 0 h: 114 ng/mL
[1]; Table 3 mean of patients, 1 hrs, read-out: Plasma milrinone level, Mean, 1 hrs
  concentration at 1 h: 133 ng/mL
[1]; Table 3 mean of patients, 4 hrs, read-out: Plasma milrinone level, Mean, 4 hrs
  concentration at 4 h: 149 ng/mL
[1]; Table 3 mean of patients, 8 hrs, read-out: Plasma milrinone level, Mean, 8 hrs
  concentration at 8 h: 213 ng/mL
[1]; Table 3 mean of patients, 12 hrs, read-out: Plasma milrinone level, Mean, 12 hrs
  concentration at 12 h: 176 ng/mL
[1]; Table 3 mean of patients, 24 hrs, read-out: Plasma milrinone level, Mean, 24 hrs
  concentration at 24 h: 173 ng/mL
[1]; Table 3 median of patients, 0 hrs, read-out: Plasma milrinone level, Median, 0 hrs
  concentration at 0 h: 75 ng/mL
[1]; Table 3 median of patients, 1 hrs, read-out: Plasma milrinone level, Median, 1 hrs
  concentration at 1 h: 114 ng/mL
[1]; Table 3 median of patients, 4 hrs, read-out: Plasma milrinone level, Median, 4 hrs
  concentration at 4 h: 117 ng/mL
[1]; Table 3 median of patients, 8 hrs, read-out: Plasma milrinone level, Median, 8 hrs
  concentration at 8 h: 227 ng/mL
[1]; Table 3 median of patients, 12 hrs, read-out: Plasma milrinone level, Median, 12 hrs
  concentration at 12 h: 160 ng/mL
[1]; Table 3 median of patients, 24 hrs, read-out: Plasma milrinone level, Median, 24 hrs
  concentration at 24 h: 137 ng/mL
[1]; 1 hour, read-out: Mean plasma milrinone levels at 1 hour
  concentration at 1 h: 111 ± 70.9 ng/mL
[1]; 4 hour, read-out: Mean plasma milrinone levels at 4 hour
  concentration at 4 h: 136 ± 41.5 ng/mL
[1]; 8 hour, read-out: Mean plasma milrinone levels at 8 hour
  concentration at 8 h: 205 ± 86.7 ng/mL
[1]; 12 hour, read-out: Mean plasma milrinone levels at 12 hour
  concentration at 12 h: 177 ± 61.3 ng/mL
[1]; 24 hour, read-out: Mean plasma milrinone levels at 24 hour
  concentration at 24 h: 188 ± 106 ng/mL
[1]; individual patients 1-10, 0 hrs, inhaled milrinone 0.5 mg/ml at 12 ml/hr, prior IV milrinone stopped 6 h (Patient 1) or >12 h before surgery
  Plasma milrinone level, 0 hrs: 69.93 ng/mL and 65.54 ng/mL and 87.08 ng/mL and 138.22 ng/mL and 392.92 ng/mL and 20.85 ng/mL and 80.03 ng/mL and 57.67 ng/mL
[1]; individual patients 1-10, 1 hrs, continuous inhaled milrinone 0.5 mg/ml at 12 ml/hr
  Plasma milrinone level, 1 hrs: 239.86 ng/mL and 115.38 ng/mL and 106.94 ng/mL and 111.96 ng/mL and 12.54 ng/mL and 157.04 ng/mL and 326.72 ng/mL and 81.31 ng/mL and 18.53 ng/mL and 158.4 ng/mL
[1]; individual patients 1-10, 4 hrs, continuous inhaled milrinone
  Plasma milrinone level, 4 hrs: 113.74 ng/mL and 112.71 ng/mL and 114.96 ng/mL and 92.16 ng/mL and 112.06 ng/mL and 188.04 ng/mL and 267.11 ng/mL and 154.31 ng/mL and 118.34 ng/mL and 216.26 ng/mL
[1]; individual patients 1-10, 8 hrs, continuous inhaled milrinone
  Plasma milrinone level, 8 hrs: 268.28 ng/mL and 115.66 ng/mL and 134 ng/mL and 273.14 ng/mL and 91.67 ng/mL and 349.39 ng/mL and 284.52 ng/mL and 158.8 ng/mL and 197.89 ng/mL and 255.72 ng/mL
[1]; individual patients 1-10, 12 hrs, continuous inhaled milrinone
  Plasma milrinone level, 12 hrs: 133.77 ng/mL and 152.27 ng/mL and 248.58 ng/mL and 254.31 ng/mL and 89.91 ng/mL and 167.3 ng/mL and 153.12 ng/mL and 205.26 ng/mL
[1]; individual patients 1-10, 24 hrs, continuous inhaled milrinone
  Plasma milrinone level, 24 hrs: 117.04 ng/mL and 364.15 ng/mL and 101.94 ng/mL and 100.88 ng/mL and 156.98 ng/mL and 197.73 ng/mL
[1]; inhaled milrinone therapy, statement in words
  Plasma milrinone levels during inhaled milrinone therapy (within the accepted therapeutic milrinone range): 100 to 300 ng/mL
[2]
  New drug formation or degradation products after nebulization (mass spectrometry): did not identify new drug formation or degradation products
[3]; 1 hour after cessation of inhaled milrinone, Pre-VAD RHC 13.75
  Right Atrial Pressure, mean, Post milrinone: 25.75 mmHg
[3]; 1 hour after cessation, Pre-VAD RHC 39.5
  Mean Pulmonary Artery Pressure, mean, Post milrinone: 27 mmHg
[3]; 1 hour after cessation, Pre-VAD RHC 56.33
  Pulmonary Artery Systolic Pressure, mean, Post milrinone: 38.75 mmHg
[3]; ICU arrival after LVAD implantation, inhaled milrinone started before weaning from bypass, Pre-VAD RHC 13.75
  Right Atrial Pressure, mean, ICU arrival: 13.33 mmHg
[3]; ICU arrival, Pre-VAD RHC 39.5
  Mean Pulmonary Artery Pressure, mean, ICU arrival: 28.5 mmHg
[3]; ICU arrival, Pre-VAD RHC 56.33
  Pulmonary Artery Systolic Pressure, mean, ICU arrival: 36.00 mmHg
[3]; during inhaled milrinone, Pre-VAD RHC 13.75
  Right Atrial Pressure, Mean on milrinone: 13.53 mmHg
[3]; during inhaled milrinone, Pre-VAD RHC 39.5
  Mean Pulmonary Artery Pressure, Mean on milrinone: 25.88 mmHg
[3]; during inhaled milrinone, Pre-VAD RHC 56.33
  Pulmonary Artery Systolic Pressure, Mean on milrinone: 36.25 mmHg
[3]; p=0.017
  Invasive mean pulmonary artery pressure from baseline to during iMil therapy: improved
[3]; preoperative mean 571, p=0.179
  RVSWi, mean, 1 hour after milrinone cessation: 383 mmHg-mL/m^2
[3]; preoperative median 453, p=0.179
  RVSWi, median, 1 hour after milrinone cessation: 326 mmHg-mL/m^2
[4]
  Accepted therapeutic range of plasma milrinone: 100 to 300 ng/mL
[5]
  Death while receiving inhaled milrinone therapy: No deaths occurred
[5]; listed as iMil
  Death while receiving inhaled milrinone therapy: not observed
[5]; human, in vivo
  Ventricular tachycardia events, number (%): 3 (30%)
[5]; human, in vivo, 24 h
  Non-sustained VT, number of patients/events: 1
  Sustained VT, number of patients/events: 2
[5]; institutional 30 day death rate 12% (12/102), p=0.60
  Deaths in the study group 30 days after CF-LVAD implantation: 0/10
[5]; n=3 of 10, INTERMACS data base 36%, p=0.99
  Rate of ventricular arrhythmias during inhaled milrinone therapy: 30%
[5]; within hours of LVAD implantation, no absolute cause identified
  Patients requiring veno-arterial ECMO support: 1
[6]; p=0.347
  Qualitative RV function after LVAD implantation vs pre-LVAD implant: not significantly different
[6]; p=0.846
  TAPSE after LVAD implantation vs pre-LVAD implant: not significantly different
[6]; [8]
  LVED volume (echocardiography) after LVAD implantation vs pre-LVAD implant: significant decreases
  LVIDd (echocardiography) after LVAD implantation vs pre-LVAD implant: significant decreases
  PASP (echocardiography) after LVAD implantation vs pre-LVAD implant: significant decreases
[7]; institutional 5 days, p=0.49
  Median ICU length of stay: 5 days
[7]; institutional 6 days, p=0.08
  Median total days on inotrope support: 9 days
[7]; institutional 28 days, p=0.26
  Median total hospital length of stay: 33 days
